Source: patent publication US20190239509A1, “METHOD OF CONTROLLING PLANTS” (SYNGENTA PARTICIPATIONS AG, priority 2016, published 2019)

Legend:
Type in all cases: in vivo
Conditions in all cases: after 14 days, 100=total damage, 0=no damage
[1] = test system: ABUTH (Abutilon theophrasti); test: B1 glasshouse post-emergence herbicidal activity, ABUTH
Method: (§1) Seeds of a variety of test species HORVW (Hordeum vulgare—barley), ABUTH (Abutilon theophrasti), AMARE (Amaranthus retroflexus) and ECHCG (Echinochloa crus-galli) were sown in standard soil in pots. After cultivation for 10 days cultivation under controlled conditions in a glasshouse (at 24/16° C., day/night; 14 hours light; 65% humidity), the plants were sprayed with an aqueous spray solution derived from the formulation of the technical active ingredient in 0.6 ml acetone and 45 ml formulation solution containing 10.6% Emulsogen EL (Registry number 61791-12-6), 42.2% N-methyl pyrrolidone, 42.2% dipropylene glycol monomethyl ether (CAS RN 34590-94-8) and 0.2% X-77 (CAS RN 11097-66-8).
(§2) The test plants were then grown in a glasshouse under controlled conditions in a glasshouse (at 24/16° C., day/night; 14 hours light; 65% humidity) and watered twice daily. After 14 days, the test was evaluated (100=total damage to plant; 0=no damage to plant).

[2] = test system: ECHCG (Echinochloa crus-galli); test: B1 glasshouse post-emergence herbicidal activity, ECHCG
Method: as §1, §2

[3] = test system: AMARE (Amaranthus retroflexus); test: B1 glasshouse post-emergence herbicidal activity, AMARE
Method: as §1, §2

[4] = test system: HORVW (Hordeum vulgare—barley); test: B1 glasshouse post-emergence herbicidal activity, barley
Method: as §1, §2

Row | Compound | ABUTH ([1]; Rate 125 g/ha) | ABUTH ([1]; Rate 250 g/ha) | ECHCG ([2]; Rate 125 g/ha) | ECHCG ([2]; Rate 250 g/ha) | AMARE ([3]; Rate 125 g/ha) | AMARE ([3]; Rate 250 g/ha) | HORVW ([4]; Rate 125 g/ha) | HORVW ([4]; Rate 250 g/ha)
1 | COc1ccc(-n2nc(C)cc(C(=O)C3C(=O)C4CCC(C4)C3=O)c2=O)cc1OC (stereo not drawn) [Compound 2.1, 3-[2-(3,4-dimethoxyphenyl)-6-methyl-3-oxo-pyridazine-4-carbonyl]bicyclo[3.2.1]octane-2,4-dione] | 100 | 100 | 100 | 100 | 100 | 100 | 0 | 0
2 | COc1ccc(-n2nc(C)cc(C(=O)C3C(=O)CC(C)CC3=O)c2=O)cc1OC (stereo not drawn) [Compound 2.2] | 100 | 100 | 100 | 100 | 100 | 100 | 0 | 0
3 | COc1ccc(-n2nc(C)cc(C(=O)C3C(=O)CC(C)(C)CC3=O)c2=O)cc1OC [Compound 2.4] | 100 | 100 | 100 | 100 | 100 | 100 | 0 | 10
4 | COc1ccc(-n2nc(C)cc(C(=O)C3C(=O)C(C)(C)C(=O)C(C)(C)C3=O)c2=O)cc1OC [Compound 2.5] | 100 | 100 | 90 | 90 | 100 | 100 | 0 | 0
5 | COc1ccc(-n2nc(C3CC3)cc(C(=O)C3C(=O)C4CCC(C4)C3=O)c2=O)cc1OC (stereo not drawn) [Compound 2.9] | 100 | 100 | 100 | 100 | 90 | 100 | 0 | 10
6 | COc1ccc(-n2nc(C3CC3)cc(C(=O)C3C(=O)C(C)(C)C(=O)C(C)(C)C3=O)c2=O)cc1OC [Compound 2.11, 6-[6-cyclopropyl-2-(3,4-dimethoxyphenyl)-3-oxo-pyridazine-4-carbonyl]-2,2,4,4-tetramethyl-cyclohexane-1,3,5-trione] | 100 | 100 | 100 | 100 | 100 | 100 | 0 | 0
